Laboratory results: patent publication US12448655B2, “Antibiotic susceptibility of microorganisms and related methods and systems” (CALIFORNIA INSTITUTE OF TECHNOLOGY, priority 2017, dated 2025)

Columns and labels:
E. coli isolates = test: Quantification of DNA release following antibiotic exposure, filtration and ddPCR (Example 27); assay type: cell-based, Escherichia coli; set-up: dose or concentration left out as unconfirmed; settings: 15 min exposure, 0.22 μm filtration, ddPCR
Method: Filtration experiments. Filtration experiments were performed using E. coli isolates exposed to 0.5 μg/mL ertapenem for 15 min. Immediately following exposure, cultures were passed through 0.22 μm, 1.5 mL cellulose acetate centrifuge tube filters (Corning Costar Spin-X, Corning, NY) by adding 50 μL of sample to the filter and centrifuging for 4 minutes at 1000 ref. DNA was extracted from both the feed and filtrate using QuickExtract DNA Extraction Solution (Lucigen, Middleton, WI, USA). Samples were diluted 10× into extraction buffer and extracted according to manufacturer instructions. The concentration of the single copy E. coli uidA gene was then quantified in the feed and filtrate extractions. The percentage of E. coli DNA in the filtrate was calculated as the filtrate concentration divided by the feed concentration. Droplet digital PCR (ddPCR) was performed using QX200 ddPCR Supermix for EvaGreen (BioRad). 10% of the final reaction volume was template. Published primers targeting the uidA gene in E. coli were used at a final concentration of 500 nM. Cycling conditions consisted of 5.0 min at 95° C., followed by 40 cycles of 95° C. for 30 sec, 60° C. for 30 sec, and 72° C. for 30 sec., with final dye stabilization steps of 4° C. for 5.0 min followed by 90° C. for 5.0 min.
To investigate the mechanism of pol-aAST, experiments were performed to separate free NAs from NAs contained within structurally intact cells or associated with cell debris. Susceptible and resistant clinical isolates were exposed to β-lactams for 15 min, then filtered through […] filters to remove cells from free NAs. NAs in the sample and eluate were then quantified using droplet digital PCR (ddPCR).

Neisseria gonorrhoeae [1] = test: AST by inaccessible DNA, 1 incubation step with Triton X-100 and DNaseI, qPCR (Example 1); assay type: cell-based
Method: An antibiotic susceptibility test can be performed with methods herein described comprising 15-minute co-incubation of the sample with antibiotics and an enhancing treatment followed by cell lysis, and detection of differences in amounts of detected DNA between the antibiotic-susceptible and a corresponding control but not in antibiotic-resistant NG isolates with respect to a corresponding control.
For each isolate, two incubation tubes were prepared in 2 mL purple cap tubes (VWR Cat #89004-298), following the indication in table x below, titled “Antibiotic Exposure per 500 μL”. Add Triton X (enhancer), DNaseI (Cat: M0303L) (degrader), NaHCO3 (conditioner).
The antibiotic incubation/exposure was performed on a heat-shake block fit to 2 mL purple cap tubes (VWR Cat #89004-298). The particular shake-block was measured with a thermocouple to ensure the temperature inside the tubes with 500 μL of media is 37° C. (settings 38° C. and 1000 rpm shaking), qPCR was used for NA amplification
Extraction was performed following “DEB Extraction” description in the general methods using Eppendorf tubes. Vortex samples briefly (2 seconds) and centrifuge before transferring 10 μL of the sample to 90 μL of the extraction buffer. • 9. Optionally, continue incubation of the treated and untreated samples for a control of the antibiotic efficacy over >15 minute exposures
The “qPCR” description in the general methods was followed. All DEB-extracted DNA were quantified using a primer mix=(10 µM forward and reverse) targeting N. gonorrhoeae porA gene. Samples were run in qPCR triplicates (10 μL reactions) at an annealing temperature 62° C. The primers target the porA gene. • 11. Data analysis is performed on the raw cq measurements obtained from the qPCR instrument

Neisseria gonorrhoeae [2] = test: AST by inaccessible DNA, 2 incubation steps (media; TRIS pH 8.5 enhancing buffer), qPCR (Example 3); assay type: cell-based; settings: 30 min ABX exposure then 20 min TRIS pH 8.5 ± 1% Triton X-100
Method: Antibiotic susceptibility test was performed with methods herein described comprising 2 sequential incubation steps, and in particular • a primary incubation in which a sample is contacted with media, antibiotic (or water in untreated sample), and a nuclease (such as DNaseI), and optionally an enhancer (such as 1% Triton X-100); and • a secondary incubation in which a cell suspension from primary incubation is contacted with enhancers such as 50 mM TRIS buffer at pH 8.5 and/or 1% Triton X-100, possibly using dilution of the cell suspension from the antibiotic exposure by 90-95% (such as 50 μL into 450 μL, 25 μL into 475 μL) removing most antibiotic, culture media, and other components from the primary incubation for the enhancer condition.
The samples were mixed before transferring 25 μL or 50 μL of the sample to the prepared secondary incubation (enhancer) tubes. The charts in step 1 were followed to add the appropriate volume of cells to each tube. Mix the tubes and proceed to step 9 immediately
Extraction was performed following the “DEB Extraction” description in the general methods using Eppendorf tubes. […]
Detection of DNA was performed following the “qPCR” description in the general methods. Quantify all DEB-extracted DNA using the Primer mix=(10 μM forward and reverse) targeting N. gonorrhoeae porA gene. […]

| Compound | average percentage of DNA released from susceptible isolates (E. coli isolates) | Cqs of treated sample compared with control (no ABX) (Neisseria gonorrhoeae [1]; ceftriaxone-resistant isolate ng_30, 15-minute incubation with 1% TritonX-100 and DNaseI) | difference in relative concentrations (inaccessible DNA) control vs treated (Neisseria gonorrhoeae [1]; ceftriaxone-susceptible isolate ng_3, 15-minute incubation with 1% TritonX-100 and DNaseI) | Cq difference between control and antibiotic-treated sample (FIG. 3 bars (a) and (b)) (Neisseria gonorrhoeae [1]; ceftriaxone-susceptible isolate ng_3, 15-minute incubation with 1% TritonX-100 and DNaseI in MH media) | fold change (1/FC) of DNA between 30 and 50 minute measurements (Neisseria gonorrhoeae [2]; resistant isolate (ng_44)) | fold change (1/FC) of DNA between 30 and 50 minute measurements (Neisseria gonorrhoeae [2]; susceptible-treated samples (ng_17)) |
| --- | --- | --- | --- | --- | --- | --- |
| CO/N=C(\C(=O)N[C@@H]1C(=O)N2C(C(=O)O)=C(CSc3nc(=O)c(=O)[nH]n3C)CS[C@H]12)c1csc(N)n1 [CRO, ceftriaxone] | 6% | not distinguishable from the control | 11 fold | 3.5 Cq | – | – |
| penicillin | – | – | – | – | approximately 1.5 | > 5 |
